Source: patent publication US10189840B2, “Substituted tricyclic heterocyclic compounds” (BRISTOL-MYERS SQUIBB COMPANY, priority 2015, dated 2019)
pIC50: −log10 of the molar value.

biological target: TNFα (Homo sapiens (Human), UniProt P01375); assay: TNF induced HEK-Blue assay; assay type: cell-based; details: TNFα 0.5 ng/ml; HEK-Blue-CD40L cells, NF-κB-driven secreted alkaline phosphatase reporter; 18 h
Description: Test compounds serially diluted in DMSO were plated in an assay plate (Labcyte, Cat. #LP-0200) at final concentrations ranging from 0.004 μM to 25 μM. TNFα (final concentration 0.5 ng/ml) or CD40L (final concentration 30 ng/ml) in assay buffer [DMEM, 4.5 g/l glucose (Gibco, Cat. 21063-029), 10% FBS (Sigma, F4135), 1% Penicillin-Streptomycin (Gibco, Cat. 15140-122), 1% Anti-Anti (Gibco, Cat. 15240-112) and 2 mM L-glutamine (Gibco, Cat. 25030-081)] was then added to the assay plate. After a 30 minute pre-incubation at 37° C. and 5% CO2, HEK-Blue-CD40L cells (InvivoGen, Cat. Code hkb-cd40) containing a NF-κB-driven secreted alkaline phosphatase reporter gene were seeded into the assay plate at a density of 20,000 cells per well. This plate was then incubated for 18 h at 37° C. and 5% CO2. Secreted alkaline phosphatase expression was measured using QUANTI-Blue (InvivoGen, Cat. Code rep-qb1) according to manufacturer's specifications and the assay plate was read on a PerkinElmer Envision at 620 nm.
Inhibition data for the test compound over a range of concentrations was plotted as percentage inhibition of the test compound (100%=maximum inhibition). IC50 values were determined after correcting for background [(sample read−mean of low control)/(mean of high control−mean of low control)] where by the low control is DMSO without stimulation and high control is DMSO with stimulation. The IC50 is defined as the concentration of test compound which produces 50% inhibition and was quantified using the 4 parameter logistic equation to fit the data.
Table 5 lists the IC50 values measured in the TNF induced HEK-Blue assay for Examples 1 to 40 of this invention.

TNFα, sequence (P01375 77-233): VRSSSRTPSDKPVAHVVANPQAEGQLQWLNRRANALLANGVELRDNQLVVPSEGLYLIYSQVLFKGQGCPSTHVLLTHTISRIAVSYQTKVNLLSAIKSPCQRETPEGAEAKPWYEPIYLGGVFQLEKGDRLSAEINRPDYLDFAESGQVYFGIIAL

pIC50	SMILES
5.00 to 6.00	COc1ccc(-c2ccc3nc4n(c3n2)[C@@H](c2cc(C)ccc2C)CC4)cn1 [Example 39, (R)-8-(2,5-dimethylphenyl)-2-(6-methoxypyridin-3-yl)-7,8-dihydro-6H-pyrrolo[2′,1′:2,3]imidazo[4,5-b]pyridine]
> 6.00	CC(C)(O)c1ccc(-c2ccc3nc4n(c3n2)C(c2cc(F)ccc2C(F)(F)F)CC4O)cc1 (single isomer, unassigned) [Example 13 (e1), 8-(5-fluoro-2-(trifluoromethyl)phenyl)-2-(4-(2-hydroxypropan-2-yl)phenyl)-7,8-dihydro-6H-pyrrolo[2′,1′:2,3]imidazo[4,5-b]pyridin-6-ol]
5.00 to 6.00	COc1ccccc1C1CC(O)c2nc3ccc(-c4ccc(C(C)(C)O)cc4)nc3n21 (single isomer, unassigned) [Example 12 (e2), 2-(4-(2-hydroxypropan-2-yl)phenyl)-8-(2-methoxyphenyl)-7,8-dihydro-6H-pyrrolo[2′,1′:2,3]imidazo[4,5-b]pyridin-6-ol]
5.00 to 6.00	CC(C)(O)c1ccc(-c2ccc3nc4n(c3n2)C(c2cc(F)ccc2C(F)(F)F)CC4O)cc1 (single isomer, unassigned) [Example 13 (e4), 8-(5-fluoro-2-(trifluoromethyl)phenyl)-2-(4-(2-hydroxypropan-2-yl)phenyl)-7,8-dihydro-6H-pyrrolo[2′,1′:2,3]imidazo[4,5-b]pyridin-6-ol]
5.00 to 6.00	COc1ccc(-c2ccc3nc4n(c3n2)C(c2ccccc2OC(F)F)CC4F)cn1 (centres unmarked) [Example 18 (DM), 8-(2-(difluoromethoxy)phenyl)-6-fluoro-2-(6-methoxypyridin-3-yl)-7,8-dihydro-6H-pyrrolo[2′,1′:2,3]imidazo[4,5-b]pyridine]
> 6.00	Cc1ccc(C)c([C@H]2CCc3nc4ccc(-c5ccc(C(C)(C)O)cc5)nc4n32)c1 [Example 37, (R)-2-(4-(8-(2,5-dimethylphenyl)-7,8-dihydro-6H-pyrrolo[2′,1′:2,3]imidazo[4,5-b]pyridin-2-yl)phenyl)propan-2-ol]
5.00 to 6.00	CC(C)(O)c1ncc(-c2ccc3nc4n(c3n2)C(c2ccccc2OC(F)F)CC4O)cn1 (centres unmarked) [Example 11 (e4), 8-(2-(difluoromethoxy)phenyl)-2-(2-(2-hydroxypropan-2-yl)pyrimidin-5-yl)-7,8-dihydro-6H-pyrrolo[2′,1′:2,3]imidazo[4,5-b]pyridin-6-ol]
> 6.00	CC(C)(O)c1ccc(-c2ccc3nc4n(c3n2)C(c2ccccc2C2CC2)CC4F)cc1 (single isomer, unassigned) [Example 21 (e4), 2-(4-(8-(2-cyclopropylphenyl)-6-fluoro-7,8-dihydro-6H-pyrrolo[2′,1′:2,3]imidazo[4,5-b]pyridin-2-yl)phenyl)propan-2-ol]
> 6.00	CC(C)(O)c1ccc(-c2ccc3nc4n(c3n2)C(c2ccccc2C(F)(F)F)CC4)cc1 (single isomer, unassigned) [Example 25 (e2), 2-(4-(8-(2-(Trifluoromethyl)phenyl)-7,8-dihydro-6H-pyrrolo[2′,1′:2,3]imidazo[4,5-b]pyridin-2-yl)phenyl)propan-2-ol]
> 6.00	CC(C)(O)c1ccc(-c2ccc3nc4n(c3n2)C(c2ccccc2OC(F)F)CC4F)cc1 (centres unmarked) [Example 15 (e1), 2-(4-(8-(2-(difluoromethoxy)phenyl)-6-fluoro-7,8-dihydro-6H-pyrrolo[2′,1′:2,3]imidazo[4,5-b]pyridin-2-yl)phenyl)propan-2-ol]
5.00 to 6.00	CC(C)(O)c1ccc(-c2ccc3nc4n(c3n2)C(c2cc(F)ccc2C(F)(F)F)CC4F)cc1 (single isomer, unassigned) [Example 24 (e1), 2-(4-(6-fluoro-8-(5-fluoro-2-(trifluoromethyl)phenyl)-7,8-dihydro-6H-yrrolo[2′,1′:2,3]imidazo[4,5-b]pyridin-2-yl)phenyl)propan-2-ol]
5.00 to 6.00	Cn1cc(-c2ccc3nc4n(c3n2)C(c2ccccc2OC(F)F)CC4)cn1 (racemic) [Example 30 (rac), 8-(2-(difluoromethoxy)phenyl)-2-(1-methyl-1H-pyrazol-4-yl)-7,8-dihydro-6H-pyrrolo[2′,1′:2,3]imidazo[4,5-b]pyridine]
5.00 to 6.00	CC(C)(O)c1ccc(-c2ccc3nc4n(c3n2)C(c2c(F)cccc2C(F)(F)F)CC4O)cc1 (centres unmarked) [Example 3 (e4), 8-(2-fluoro-6-(trifluoromethyl)phenyl)-2-(4-(2-hydroxypropan-2-yl)phenyl)-7,8-dihydro-6H-pyrrolo[2′,1′:2,3]imidazo[4,5-b]pyridin-6-ol]
5.00 to 6.00	CC(C)(O)c1ccc(-c2ccc3nc4n(c3n2)C(c2ccccc2OC(F)F)CC4O)cc1 (single isomer, unassigned) [Example 2 (e4), 8-(2-(difluoromethoxy)phenyl)-2-(4-(2-hydroxypropan-2-yl)phenyl)-7,8-dihydro-6H-pyrrolo[2′,1′:2,3]imidazo[4,5-b]pyridin-6-ol]
> 6.00	CC(C)(O)c1ccc(-c2ccc3nc4n(c3n2)C(c2cc(F)ccc2C(F)(F)F)CC4F)cc1 (centres unmarked) [Example 24 (DM), 2-(4-(6-fluoro-8-(5-fluoro-2-(trifluoromethyl)phenyl)-7,8-dihydro-6H-yrrolo[2′,1′:2,3]imidazo[4,5-b]pyridin-2-yl)phenyl)propan-2-ol]
4.60 to 5.00	CC(C)(O)c1ccc(-c2ccc3nc4n(c3n2)C(c2ccccc2OC(F)F)CC4F)cc1 (centres unmarked) [Example 15 (e4), 2-(4-(8-(2-(difluoromethoxy)phenyl)-6-fluoro-7,8-dihydro-6H-pyrrolo[2′,1′:2,3]imidazo[4,5-b]pyridin-2-yl)phenyl)propan-2-ol]
> 6.00	CC(C)(O)c1ccc(-c2ccc3nc4n(c3n2)C(c2c(F)cccc2C(F)(F)F)CC4)cc1 (single isomer, unassigned) [Example 32 (e1), 2-(4-(8-(2-fluoro-6-(trifluoromethyl)phenyl)-7,8-dihydro-6H-pyrrolo[2′,1′:2,3]imidazo[4,5-b]pyridin-2-yl)phenyl)propan-2-ol]
5.00 to 6.00	CC(C)(O)c1ccc(-c2ccc3nc4n(c3n2)C(c2c(F)cccc2C(F)(F)F)CC4F)cc1 (single isomer, unassigned) [Example 23 (e2), 2-(4-(6-fluoro-8-(2-fluoro-6-(trifluoromethyl)phenyl)-7,8-dihydro-6H-pyrrolo[2′,1′:2,3]imidazo[4,5-b]pyridin-2-yl)phenyl)propan-2-ol]
> 6.00	CC(C)(O)c1ccc(-c2ccc3nc4n(c3n2)C(c2cc(F)ccc2C(F)(F)F)CC4)cc1 (racemic) [Example 34 (rac), 2-(4-(8-(5-fluoro-2-(trifluoromethyl)phenyl)-7,8-dihydro-6H-pyrrolo[2′,1′:2,3]imidazo[4,5-b]pyridin-2-yl)phenyl)propan-2-ol]
> 6.00	CC(C)(O)c1ncc(-c2ccc3nc4n(c3n2)C(c2ccccc2OC(F)F)CC4F)cn1 (centres unmarked) [Example 16 (e4), 2-(5-(8-(2-(difluoromethoxy)phenyl)-6-fluoro-7,8-dihydro-6H-pyrrolo[2′,1′:2,3]imidazo[4,5-b]pyridin-2-yl)pyrimidin-2-yl)propan-2-ol]
> 6.00	CC(C)(O)c1ccc(-c2ccc3nc4n(c3n2)C(c2ccccc2OC(F)F)CC4)cc1 (racemic) [Example 26 (rac), 2-(4-(8-(2-(difluoromethoxy)phenyl)-7,8-dihydro-6H-pyrrolo[2′,1′:2,3]imidazo[4,5-b]pyridin-2-yl)phenyl)propan-2-ol]
> 6.00	CC(C)(O)c1ncc(-c2ccc3nc4n(c3n2)C(c2ccccc2OC(F)F)CC4)cn1 (racemic) [Example 27 (rac), 2-(5-(8-(2-(difluoromethoxy)phenyl)-7,8-dihydro-6H-pyrrolo[2′,1′:2,3]imidazo[4,5-b]pyridin-2-yl)pyrimidin-2-yl)propan-2-ol]
> 6.00	CC(C)(O)c1ccc(-c2ccc3nc4n(c3n2)C(c2cc(F)ccc2C(F)(F)F)CC4)cc1 (single isomer, unassigned) [Example 34 (e1), 2-(4-(8-(5-fluoro-2-(trifluoromethyl)phenyl)-7,8-dihydro-6H-pyrrolo[2′,1′:2,3]imidazo[4,5-b]pyridin-2-yl)phenyl)propan-2-ol]
> 6.00	CC(C)(O)c1ccc(-c2ccc3nc4n(c3n2)C(c2ccccc2C2CC2)CC4F)cc1 (single isomer, unassigned) [Example 21 (e1), 2-(4-(8-(2-cyclopropylphenyl)-6-fluoro-7,8-dihydro-6H-pyrrolo[2′,1′:2,3]imidazo[4,5-b]pyridin-2-yl)phenyl)propan-2-ol]
> 6.00	Cc1ccc(C)c(C2CC(F)c3nc4ccc(-c5cnc(C(C)(C)O)nc5)nc4n32)c1 (centres unmarked) [Example 20 (DM), 2-(5-(8-(2,5-dimethylphenyl)-6-fluoro-7,8-dihydro-6H-pyrrolo[2′,1′:2,3]imidazo[4,5-b]pyridin-2-yl)pyrimidin-2-yl)propan-2-ol]
5.00 to 6.00	CC(C)(O)c1ccc(-c2ccc3nc4n(c3n2)C(c2ccccc2OC(F)F)CC4O)cc1 (single isomer, unassigned) [Example 2 (e2), 8-(2-(difluoromethoxy)phenyl)-2-(4-(2-hydroxypropan-2-yl)phenyl)-7,8-dihydro-6H-pyrrolo[2′,1′:2,3]imidazo[4,5-b]pyridin-6-ol]
